Source: paper PMC10399917 (Journal of Molecular Cell Biology, 2023)
Values joined by “and” are separate entries in the source; they are usually repeats but may differ in a detail not shown here. Equal values may be shown once. Read-outs that look alike come from different tables or passages of the source.

Experiments:
[1] = molecular target: TMPRSS2–SPIKE interaction (His-TMPRSS2 and SPIKE-FLAG) (Severe acute respiratory syndrome coronavirus 2, UniProt P0DTC2); assay: biochemical; format: binding, SARS-CoV-2
[2] = molecular target: TMPRSS2–SPIKE interaction (SmBiT-TMPRSS2 and SPIKE-LgBiT) (Severe acute respiratory syndrome coronavirus 2, UniProt P0DTC2); format: cell-based, SARS-CoV-2
SPIKE protein = settings: ref Feng et al., 2020; cited from earlier work

`Cc1cc(C(C#N)c2ccc(Cl)cc2)c(Cl)cc1NC(=O)c1cc(I)cc(I)c1O` (stereo not drawn) [closantel] gave an IC50 ([1]; IC50, TR-FRET signal) of roughly 17 µM.

For `O=C(/C=C/c1ccc(O)c(O)c1)OCCc1ccccc1` [CAPE, caffeic acid phenethyl ester], the “Inhibition of NanoBiT signal” value [2] was “dose-dependent inhibition” and the IC50 ([1]; IC50, TR-FRET signal) was 13.8 µM.

With `CC(C)c1onc(-c2c(Cl)cccc2Cl)c1COc1ccc(/C=C/c2cccc(C(=O)O)c2)c(Cl)c1` [GW4064] the IC50 ([1]; read-out: IC50, TR-FRET signal) was roughly 7 µM.

Molecule `N#C/C(=C/c1ccc(O)c(O)c1)C(=O)NCc1ccccc1` [AG-490] has an IC50 ([1]; read-out: IC50, TR-FRET signal) of roughly 19 µM.

In the case of `Cc1cc2c(C(C)C)c(O)c(O)c(C=O)c2c(O)c1-c1c(C)cc2c(C(C)C)c(O)c(O)c(C=O)c2c1O` [gossypol acetate], the “Inhibition of NanoBiT signal” value [2] is reported as “dose-dependent inhibition” and the IC50 ([1]; IC50, TR-FRET signal) is reported as 0.69 µM.

In the case of `CC1=NN(c2ccc(C)c(C)c2)C(=O)/C1=N\Nc1cccc(-c2cccc(C(=O)O)c2)c1O` [eltrombopag olamine], the “Binding to the SPIKE protein” value (SPIKE protein) is given as “bind to the SPIKE protein” and the IC50 ([1]; IC50, TR-FRET signal) is given as ~20 µM and 20.6 µM.
